The supplement of paper PMC10307832

Columns and labels:
Assay in all cases: relative viability (nuclei count vs DMSO), 5 days (fraction); higher = more cells survive
[1] = compound: COc1cccc2c1C(=O)c1c(O)c3c(c(O)c1C2=O)C[C@@](O)(C(=O)CO)C[C@@H]3O[C@H]1C[C@H](N)[C@H](O)[C@H](C)O1 [Doxorubicin] + CC(=O)c1c(C)c2cnc(Nc3ccc(N4CCNCC4)cn3)nc2n(C2CCCC2)c1=O [Palbociclib] (partner 0.5 µM)
Summary of the method: (§1)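 After 5 days of treatment, lung cancer cells in 1536-well plates were fixed and stained in a single step (final 0.05% Triton X-100, 1% formaldehyde, 1 ug/ml Hoechst) and their nuclei counted on 4× images. Treatment had been applied by pin tool the day after seeding as one drug alone or as a fixed anchor-drug dose with five library-drug doses (not always all listed) in √10 steps. Relative viability is the nuclei count of treated wells divided by that of vehicle wells, and values are medians of duplicate plates.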

[2] = compound: COC1=C(C=C(C=C1)C2=CC3=NC=CN3C(=N2)NC4=C(C=CC=N4)C(=O)N)OC [BAY61-3606] + CS(=O)(=O)CCNCc1ccc(-c2ccc3ncnc(Nc4ccc(OCc5cccc(F)c5)c(Cl)c4)c3c2)o1 [Lapatinib] (partner 2 µM)
Summary of the method: as §1

[3] = compound: COc1cccc2c1C(=O)c1c(O)c3c(c(O)c1C2=O)C[C@@](O)(C(=O)CO)C[C@@H]3O[C@H]1C[C@H](N)[C@H](O)[C@H](C)O1 [Doxorubicin] + CCNC(=O)c1noc(-c2cc(C(C)C)c(O)cc2O)c1-c1ccc(CN2CCOCC2)cc1 [Luminespib] (partner 0.01 µM)
Summary of the method: as §1

[4] = compound: COc1cccc2c1C(=O)c1c(O)c3c(c(O)c1C2=O)C[C@@](O)(C(=O)CO)C[C@@H]3O[C@H]1C[C@H](N)[C@H](O)[C@H](C)O1 [Doxorubicin] + N=C(N)NC(=N)NCCc1ccccc1 [Phenformin] (partner 250 µM)
Summary of the method: as §1

Cell Line	relative viability ([1]; first compound 0.001 µM)	relative viability ([1]; first compound 0.003162 µM)	relative viability ([1]; first compound 0.01 µM)	relative viability ([1]; first compound 0.03162 µM)	relative viability ([1]; first compound 0.1 µM)	relative viability ([2]; first compound 0.02 µM)	relative viability ([2]; first compound 0.06325 µM)	relative viability ([2]; first compound 0.2 µM)	relative viability ([2]; first compound 0.6325 µM)	relative viability ([2]; first compound 2 µM)	relative viability ([3]; first compound 0.003162 µM)	relative viability ([3]; first compound 0.01 µM)	relative viability ([3]; first compound 0.03162 µM)	relative viability ([3]; first compound 0.1 µM)	relative viability ([4]; first compound 0.003162 µM)	relative viability ([4]; first compound 0.01 µM)	relative viability ([4]; first compound 0.03162 µM)	relative viability ([4]; first compound 0.1 µM)	relative viability ([3]; first compound 0.001 µM)	relative viability ([4]; first compound 0.001 µM)
NCI-H1648	0.283	0.294	0.286	0.245	0.258															
NCI-H1793		0.303	0.304	0.258	0.324	0.479	0.775	0.823	0.948	0.796	0.228	0.289	0.159	0.263	0.291	0.355	0.334	0.429		
SK-LU-1	0.351	0.414	0.351	0.333	0.355	0.953	0.81	0.885	0.862	0.532	0.215	0.249	0.203	0.165	0.558	0.449	0.226	0.173	0.204	0.367
HCC-44	0.99	0.981	1	1.03	0.933	1.02	1.02	1.02	1.06	1.21	0.838	0.658	0.526	0.273	0.244	0.341	0.151	0.162	0.879	0.207
201T	0.351	0.321	0.345	0.349	0.354	1.08	1.01	1.11	1.03	0.996	1.08	1.04	1.01	1.11	0.476	0.468	0.416	0.432	1.03	0.442
HOP-62	0.421	0.444	0.494	0.434	0.486	0.918		1.05	1.06	1.07	0.942	0.896	0.958	0.931	0.625	0.631	0.542	0.484	0.906	0.654
NCI-H838	0.254	0.234	0.229	0.222	0.184	1.17	0.875	0.971	0.951	0.621	0.35	0.279	0.255	0.172	0.607	0.556	0.346	0.19	0.273	0.502
NCI-H2085	0.472	0.458	0.461	0.53	0.512	0.865	0.784	0.777	0.977	0.71	0.462	0.46	0.47	0.478	0.709	0.653	0.545	0.478	0.471	0.733
NCI-H661	0.384	0.407	0.396	0.36	0.34	0.575	0.534	0.415	0.541	0.371	0.909	0.858	0.574	0.378	0.284	0.265	0.244	0.238	0.915	0.27
NCI-H23	0.503	0.568	0.479	0.428	0.44	1.16	1.39	1.11	0.985	0.95	0.221	0.235	0.18	0.23	0.84	0.806	0.58	0.486		
A-427	0.518	0.526	0.517	0.449	0.363	1.07	1.1	1.05	1.04	1.01	0.784	0.866	0.656	0.64	0.337	0.292	0.337	0.33	0.803	0.263
NCI-H647	0.403	0.492	0.412	0.15	0.239	1.13	1.25	1.12	1.11	0.86	0.13	0.11	0.185	0.149	0.494	0.432	0.231	0.103	0.117	0.539
NCI-H1734	0.408	0.425	0.324	0.263	0.344	0.991	1.07	1	1.14	0.758	0.196	0.175	0.18	0.213	0.413	0.356	0.262	0.261	0.869	0.385
NCI-H1915	0.581	0.536	0.549	0.483	0.543	1.02	1.02	0.925	0.878	0.919	0.733	0.702	0.715	0.779	0.355	0.367	0.375	0.353	0.802	0.354
Calu-6						1.09	1.23	1.09	1.02	0.923										
NCI-H441	0.227	0.217	0.229	0.153	0.195						0.312	0.358	0.321	0.293	0.682	0.438	0.218	0.245		
HCC-366	0.352	0.456	0.361	0.275	0.361	1.05	1.09	1.13	1.08	0.955					0.614	0.601	0.48	0.395		
EMC-BAC-2	0.524	0.465	0.442	0.383	0.403	0.882	0.969	0.861	1.11	0.921	1.18	1.04	0.551	0.425	0.462	0.416	0.265	0.206	1.25	0.621
LK-2	0.704	0.773	0.637	0.487	0.515	0.922	0.777	1.01	1.03	0.935	0.215	0.235	0.162	0.16	0.328	0.388	0.33	0.351	0.171	0.31
NCI-H2228	0.508	0.914	0.555	0.301	0.184	1.34	1.01	1.27	1	0.894	0.139	0.2	0.151	0.135	0.312	0.242	0.107	0.118	0.208	0.284

Cell Line	relative viability ([1]; first compound 0.001 µM)	relative viability ([1]; first compound 0.003162 µM)	relative viability ([1]; first compound 0.01 µM)	relative viability ([1]; first compound 0.03162 µM)	relative viability ([1]; first compound 0.1 µM)	relative viability ([2]; first compound 0.02 µM)	relative viability ([2]; first compound 0.06325 µM)	relative viability ([2]; first compound 0.2 µM)	relative viability ([2]; first compound 0.6325 µM)	relative viability ([2]; first compound 2 µM)	relative viability ([3]; first compound 0.003162 µM)	relative viability ([3]; first compound 0.01 µM)	relative viability ([3]; first compound 0.03162 µM)	relative viability ([3]; first compound 0.1 µM)	relative viability ([4]; first compound 0.003162 µM)	relative viability ([4]; first compound 0.01 µM)	relative viability ([4]; first compound 0.03162 µM)	relative viability ([4]; first compound 0.1 µM)	relative viability ([3]; first compound 0.001 µM)	relative viability ([4]; first compound 0.001 µM)
NCI-H460	0.103	0.108	0.0853	0.041	0.007	1.05	1.19	0.938	1.01	0.189	0.0412	0.0317	0.0182	0.0137	0.449	0.179	0.0505	0.0155	0.0376	0.435
NCI-H1993	0.492	0.695	0.639	0.625	0.649	0.733	0.846	0.808	0.776	0.746	0.859	0.8	0.713	0.727	0.494	0.455	0.491	0.453	1.8	0.508
NCI-H2170	0.409	0.389	0.386	0.313	0.447	0.236	0.272	0.257	0.262	0.279	0.89	0.772	0.5	0.758	0.388	0.411	0.485	0.432	0.484	0.379
LXF-289	0.589	0.625	0.549	0.634	0.607	0.886	0.945	0.95	0.934	0.992	0.576	0.703	0.635	0.658	0.545	0.498	0.504	0.495	0.63	0.432
NCI-H596						1.09	1.02	1.14	1.21	1.04	1.21	0.838	0.821	1.02	0.882	0.742	0.558	0.755	0.933	0.696
NCI-H3122	0.182	0.189	0.187	0.14	0.188	1.03	0.934	0.974	1.07	0.957	0.117	0.102	0.0975	0.0943	0.365	0.337	0.245	0.148	0.0793	0.369
HCC-78	0.46	0.526	0.449	0.488	0.453	0.949	0.682	0.82	0.702	0.959					0.768	0.659	0.706	0.625		0.778
NCI-H1299						0.945	0.98	0.97	0.963	0.953										
LCLC-103H	0.468	0.508	0.5	0.457	0.41						1.06	0.949	0.931	0.864	0.37	0.345	0.293	0.354	0.941	0.341
IA-LM						0.92	0.841		0.981	0.58										
ChaGo-K-1	0.962	0.912	0.911	0.939	0.974						0.592	0.651	0.52	0.54	0.522	0.503	0.363	0.223	0.614	0.438
NCI-H1563						0.982	0.899	0.974	1.19	0.809	0.549	0.536	0.528	0.491	0.573	0.546	0.524	0.501	0.486	0.618
NCI-H1703						1.55	1.2	0.978	1.02	0.891										
SW 900		0.604	0.543	0.452	0.519						0.152	0.162	0.167	0.175	0.685	0.607	0.328	0.138	0.176	0.704
A549						1.09	1.15	1.05	0.953	0.902					0.142	0.149	0.137	0.0431		
NCI-H2342	0.547	0.557	0.548	0.496	0.496						0.739	0.585	0.507	0.787	0.54	0.527	0.552	0.553	0.816	0.638
NCI-H1623											0.478	0.508	0.374	0.487	0.561	0.575	0.528	0.502	0.394	0.533
NCI-H522	0.986	1.19	1.08	0.89	1.04						1.21	1.12	0.885	1.15	0.622	0.585	0.543	0.645		0.595
EBC-1						0.218	0.228	0.181	0.243	0.244										
